# Calls of active or inactive are those of the source. The rule behind the calls is not given here.
# Experiments:
# [1] = tested on: Mycobacterium tuberculosis; assay: Antitubercular activity against Mycobacterium tuberculosis H37Rv ATCC 27294 after 7 days by microplate alamar blue assay; type: functional; conditions: H37Rv ATCC 27294, 168 h
# Leishmania braziliensis = assay: Antileishmanial activity against Leishmania braziliensis MHOM/PE/PER006 promastigote infected BALB/c mouse macrophages after 48 hrs by Giemsa staining method; type: functional, organism-based; conditions: MHOM/PE/PER006, 48 h
# Leishmania amazonensis [2] = assay: (§1) Antileishmanial activity against Leishmania amazonensis LV79 MPRO/BR/72/M1841 amastigotes infected BALB/c mouse assessed as lesion diameter at 5 mg/kg/day, intralesionally administered after 1 week post infection 3 times per week for 6 weeks measured on week 4 relative to control; type: functional
# K562 = assay: Cytotoxicity against human K562 cells; type: functional
# [3] = Selectivity index, ratio of IC50 for BALB/c mouse macrophages to IC50 for Leishmania amazonensis MHOM/BR/76/LTB-012
# Vero = assay: Cytotoxicity against african green monkey Vero cells after 72 hrs by MTS assay; conditions: Chlorocebus sabaeus, Vero, 72 h
# HT-29 = assay: Cytotoxicity against human HT-29 cells; type: functional
# Trypanosoma cruzi [4] = assay: Antitrypanosomal activity against Trypanosoma cruzi tulahuen C4 trypomastigotes infected in african green monkey Vero cells assessed as CPRG cleavage after 120 hrs by microplate reader; type: functional, organism-based
# MCF7 = assay: Cytotoxicity against human MCF7 cells; type: functional
# Leishmania amazonensis [5] = assay: (§2) Antileishmanial activity against Leishmania amazonensis LV79 MPRO/BR/72/M1841 amastigotes infected BALB/c mouse assessed as lesion diameter at 5 mg/kg/day, intralesionally administered after 1 week post infection 3 times per week for 6 weeks measured on week 7 relative to control; type: functional
# Leishmania amazonensis [6] = assay: as §2, with “assessed as reduction of parasite burden at 5” for “assessed as lesion diameter at 5”, “week 7 by fluorescence method relative to” for “week 7 relative to”; type: functional; parameters: scale not given: the % may be the effect or the level left
# [7] = Selectivity index, ratio of IC50 for african green monkey Vero cells to IC50 for Trypanosoma cruzi tulahuen C4; conditions: Vero cells
# Leishmania amazonensis [8] = assay: as §1, with “assessed as reduction of parasite burden at 5” for “assessed as lesion diameter at 5”, “week 4 by fluorescence method relative to” for “week 4 relative to”; type: functional; parameters: scale not given: the % may be the effect or the level left
# [9] = Cytotoxicity against BALB mouse 3T3 cells; type: cell-based; conditions: BALB 3T3 cells
# Leishmania amazonensis [10] = assay: Antileishmanial activity against Leishmania amazonensis MHOM/BR/76/LTB-012 amastigotes infected BALB/c mouse macrophages after 48 hrs by MTT assay; type: functional, organism-based; conditions: MHOM/BR/76/LTB-012, 48 h
# NCI-H460 = assay: Cytotoxicity against human NCI-H460 cells; type: functional
# [11] = Cytotoxicity against BALB/c mouse macrophages after 48 hrs by trypan blue dye exclusion method; type: cell-based; conditions: Macrophage
# M14 = assay: Cytotoxicity against human M14 cells; type: functional
# DU-145 = assay: Cytotoxicity against human DU145 cells; type: functional
# Leishmania amazonensis [12] = assay: Antileishmanial activity against Leishmania amazonensis Lma CL1 amastigotes infected BALB/c mouse macrophages after 48 hrs by Giemsa staining method; type: functional, organism-based; conditions: Lma CL1, 48 h
# Leishmania peruviana = assay: Antileishmanial activity against Leishmania peruviana MHOM/PE/LCA08 promastigote infected BALB/c mouse macrophages after 48 hrs by Giemsa staining method; type: functional, organism-based; conditions: MHOM/PE/LCA08, 48 h
# [13] = Selectivity index, ratio of IC50 for african green monkey Vero cells to MIC for Mycobacterium tuberculosis H37Rv ATCC 27294 by microplate alamar blue assay; type: functional
# [14] = tested on: Mycobacterium tuberculosis; assay: Antitubercular activity against Mycobacterium tuberculosis H37Rv ATCC 27294 after 7 days by low oxygen recovery assay; type: functional; conditions: H37Rv ATCC 27294, 168 h
# [15] = Selectivity index, ratio of IC50 for african green monkey Vero cells to MIC for Mycobacterium tuberculosis H37Rv ATCC 27294 by low oxygen recovery assay; type: functional
# Trypanosoma cruzi [16] = assay: Antitrypanosomal activity against Trypanosoma cruzi tulahuen C4 trypomastigotes infected mouse assessed as decrease in parasite replication at 20 mg/kg/day, ip on days 6 to 11 days post infection after 6 days; type: functional, organism-based
Structure (SMILES),MIC [1] [µM],GI50 (K562) [µM],Ratio IC50 [3],IC50 (Vero) [µM],GI50 (HT-29) [µM],IC50 (Trypanosoma cruzi [4]) [µM],GI50 (MCF7) [µM],selectivity ratio [7],GI50 [9] [µM],IC50 (Leishmania amazonensis [10]) [µM],GI50 (NCI-H460) [µM],IC50 [11] [µM],GI50 (M14) [µM],GI50 (DU-145) [µM],Ratio IC50 [13],MIC [14] [µM],also measured
Clc1ccc(/C=N/Nc2ncnc3sc4c(c23)CCCC4)cc1,> 250,6.7,85.2,20.4,15.1,13.1,8.4,1.6,18.7,1.7,12.8,142,> 170,14.6,–,–,IC50 (Leishmania braziliensis): 17.3 µM; Activity (Leishmania amazonensis [2]): 3.6 mm; Activity (Leishmania amazonensis [5]): 5.2 mm; Activity (Leishmania amazonensis [6]): 25%; Activity (Leishmania amazonensis [8]): 46%; IC50 (Leishmania amazonensis [12]): > 30 µM; IC50 (Leishmania peruviana): > 30 µM
CCc1ccc(/C=N/Nc2ncnc3sc4c(c23)CCCC4)cc1,> 250,11.1,9.6,–,32.2,> 25,18.5,–,36.1,15.7,28.2,151,190,58.8,–,–,IC50 (Leishmania braziliensis): 10.5 µM; Activity (Leishmania amazonensis [2]): 3 mm; Activity (Leishmania amazonensis [5]): 4.7 mm; Activity (Leishmania amazonensis [6]): 2%; Activity (Leishmania amazonensis [8]): 30%; IC50 (Leishmania amazonensis [12]): 8.2 µM; IC50 (Leishmania peruviana): 9.5 µM
Brc1ccccc1/C=N/Nc1ncnc2sc3c(c12)CCCC3,24.3,3,5.8,7.7,8,9.3,4.5,0.8,11.2,1.3,7.7,7.4,15.4,7.1,0.8,–,–
C(=N\Nc1ncnc2sc3c(c12)CCCC3)/c1ccco1,39.9,4,0.6,10.1,8.5,16.1,1,0.6,7.8,4.2,7.1,2.4,11.1,15.6,1,9.7,Ratio IC50 [15]: 4.2
CCC(CC)=NNc1ncnc2sc3c(c12)CCCC3,160,11.6,8.5,20.8,38.9,20.7,15.1,1,4.8,19,15.2,162,20.6,15,0.7,–,IC50 (Leishmania braziliensis): 11.1 µM; Activity (Leishmania amazonensis [2]): 2.8 mm; Activity (Leishmania amazonensis [5]): 4.9 mm; Activity (Leishmania amazonensis [6]): 17%; Activity (Leishmania amazonensis [8]): 65%; IC50 (Leishmania amazonensis [12]): 10.9 µM; IC50 (Leishmania peruviana): 7 µM
COc1cccc(/C=N/Nc2ncnc3sc4c(c23)CCCC4)c1,119,15.5,0.5,14.8,7.4,16.9,14.9,0.9,17.6,36.1,16.2,16.3,143,17.7,0.6,–,–
Brc1ccc(/C=N/Nc2ncnc3sc4c(c23)CCCC4)cc1,> 250,5.7,8.8,15.5,12.4,20.3,5.9,0.8,17.4,0.9,10.5,7.8,33.6,14.6,–,–,IC50 (Leishmania braziliensis): > 2 µM; IC50 (Leishmania amazonensis [12]): > 2 µM; IC50 (Leishmania peruviana): > 2 µM
O=C(Cn1ccnc1[N+](=O)[O-])NCc1ccccc1,–,–,–,–,–,–,–,–,–,–,–,–,–,–,–,–,Activity (Trypanosoma cruzi [16]): Active
FC(F)(F)c1ccccc1/C=N/Nc1ncnc2sc3c(c12)CCCC3,15.7,1.7,2.6,8,4.5,13.8,4.8,0.6,15.8,1.2,5.4,3.1,6.5,3.5,1.3,15.4,–
FC(F)(F)c1ccc(/C=N/Nc2ncnc3sc4c(c23)CCCC4)cc1,16.2,6.6,4.1,8,7,10.5,5.4,0.8,10.8,2,15.3,8.1,16.9,14.8,5.5,15.9,Ratio IC50 [15]: 5.6
Clc1ccccc1/C=N/Nc1ncnc2sc3c(c12)CCCC3,124,19.8,5,14.6,56.5,21.3,22,0.7,88.1,2.2,62.9,11.2,> 170,77.8,0.7,–,–
C(=C\c1ccccc1)/C=N/Nc1ncnc2sc3c(c12)CCCC3,35,1.6,0.1,20.9,8.2,1.4,2.1,14.6,4.4,16.6,2.1,1.7,4.6,5.4,0.1,–,Activity (Trypanosoma cruzi [16]): inactive
C/C(=N/Nc1ncnc2sc3c(c12)CCCC3)c1ccccc1,72.6,10.9,5.6,12.4,21.9,13.7,16.5,0.9,5.4,28.5,15.9,159,19.8,16.1,1.4,8.7,Ratio IC50 [15]: 11.5
NNc1ncnc2sc3c(c12)CCCC3,374,11.1,0.6,40.9,20.7,21.3,9,1.9,< 4.5,54.4,9.6,33.8,24.6,13.9,0.3,–,–
C(=N\Nc1ncnc2sc3c(c12)CCCC3)/c1ccccc1,75.9,13.2,0.6,25.9,12.5,14.4,11.2,1.8,21.7,43.7,18.2,28.3,18,20,0.5,–,–
COc1ccc(/C=N/Nc2ncnc3sc4c(c23)CCCC4)cc1,71.2,13.9,1.3,17.7,17.3,16,12.5,1.1,14.9,47.5,17.1,63.9,16.3,23.1,3.2,26.9,Ratio IC50 [15]: 8.4
